Structures can show the parent of a compound that is named as a salt.
Molecular target: RORγ-LBD (Homo sapiens (Human), UniProt P51449)
Experiment: RORγ-Ligand Binding Domain (LBD) TR-FRET Assay Protocol II
Assay type: biochemical
Conditions: purified RORγ-LBD, SRC1 peptide, overnight at 4° C.
Protocol: Part II—Procedures for RORγ-Ligand Binding Domain TR-FRET Assay Protocol II
HIS-tagged RORγ-LBD protein was expressed in SF9 cells using a baculovirus expression system. The RORγ-LBD protein was purified by […]. Separately, SF9 cells not expressing recombinant protein were lysed in TBS buffer (25 mM Tris, pH 8.0, 150 mM NaCl) under sonication. The lysate was added to the purified RORγ-LBD in a volume equivalent of 0.75 μL lysate (from 30,000 SF9 cells) per 75 femtomol of RORγ-LBD protein. The resulting mixture was diluted in assay buffer (50 mM Tris pH 7.0, 50 mM KCl, 1 mM EDTA, 0.1 mM DTT, 0.01% BSA) to obtain RORγ-LBD protein at a final concentration of 3 nM.
Compounds to be tested were injected to the assay plate using Acoustic Droplet Ejection technology by Echo 550 liquid handler (Labcyte, Calif.).
A stock of biotinylated-LXXLL peptide from coactivator SRC1 (Biotin-[…]) was prepared in assay buffer and added to each well (100 nM final concentration). A solution of Europium tagged anti-HIS antibody (1.25 nM final concentration) and APC-conjugated streptavidin (8 nM final concentration) were also added to each well.
The final assay mixture was incubated overnight at 4° C., and the fluorescence signal was measured on an Envision plate reader: (Excitation filter=340 nm; APC emission=665 nm; Europium emission=615 nm; dichroic mirror=D400/D630; delay time=100 μs, integration time=200 μs). The EC50 value for test compounds was calculated from the quotient of the fluorescence signal at 665 nm divided by the fluorescence signal at 615 nm

Sequence of RORγ-LBD (P51449 269-508): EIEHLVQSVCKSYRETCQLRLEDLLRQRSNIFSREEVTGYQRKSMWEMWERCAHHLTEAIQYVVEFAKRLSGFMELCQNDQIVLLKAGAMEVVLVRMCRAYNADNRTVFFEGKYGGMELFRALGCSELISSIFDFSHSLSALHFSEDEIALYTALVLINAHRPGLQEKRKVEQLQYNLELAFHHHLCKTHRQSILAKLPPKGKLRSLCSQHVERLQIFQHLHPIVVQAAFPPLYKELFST

EC50 [µM]	SMILES
0.017	O=C(Nc1cnc2c(c1)N(S(=O)(=O)c1cccc(C(F)(F)F)c1)CC(N1CCOC1=O)C2)c1c(Cl)cccc1Cl (stereo in doubt) [Compound 98, (R)-2,6-dichloro-N-(7-(2-oxooxazolidin-3-yl)-5-((3-(trifluoromethyl)phenyl)sulfonyl)-5,6,7,8-tetrahydro-1,5-naphthyridin-3-yl)benzamide]
0.013	CC(=O)NC[C@H]1CN(S(=O)(=O)c2cccc(C3CC3)c2)c2cc(NC(=O)c3c(Cl)cccc3Cl)cnc2O1 [Compound 18, (S)-N-(3-(acetamidomethyl)-1-((3-cyclopropylphenyl)sulfonyl)-2,3-dihydro-1H-pyrido[2,3-b][1,4]oxazin-7-yl)-2,6-dichlorobenzamide]
0.111	Cc1cccc(S(=O)(=O)N2C[C@H](C)Oc3ncc(NC(=O)C(C)C(F)(F)F)cc32)c1 (stereo partly drawn) [Compound 30]
0.057	Cc1cccc(S(=O)(=O)N2C[C@H](C)Oc3ncc(NC(=O)C(C)c4ccccc4C)cc32)c1 (stereo partly drawn) [Compound 31]
0.097	Cc1cccc(S(=O)(=O)N2C[C@H](C)Oc3ncc(NC(=O)C(C)c4ccc(F)cc4)cc32)c1 (stereo partly drawn) [Compound 32]
0.152	CCC(C)C(=O)Nc1cnc2c(c1)N(S(=O)(=O)c1cccc(C)c1)C[C@H](C)O2 (stereo partly drawn) [Compound 33]
0.108	Cc1cccc(S(=O)(=O)N2C[C@H](C)Oc3ncc(NC(=O)C(C)c4ccc(Cl)cc4)cc32)c1 (stereo partly drawn) [Compound 34]
0.007	C[C@H]1CN(S(=O)(=O)c2cccc(C3CC3)c2)c2cc(NC(=O)c3c(Cl)cccc3Cl)cnc2O1 [Compound 35]
0.025	Cc1cccc(S(=O)(=O)N2C[C@H](NC(=O)OC(C)(C)C)Cc3ncc(NC(=O)c4c(Cl)cccc4Cl)cc32)c1 [Compound 39, (R)-tert-butyl (7-(2,6-dichlorobenzamido)-1-(m-tolylsulfonyl)-1,2,3,4-tetrahydro-1,5-naphthyridin-3-yl)carbamate]
0.018	Cc1cccc(S(=O)(=O)N2C[C@H](N)Cc3ncc(NC(=O)c4c(Cl)cccc4Cl)cc32)c1 [Compound 40, (R)-N-(7-amino-5-(m-tolylsulfonyl)-5,6,7,8-tetrahydro-1,5-naphthyridin-3-yl)-2,6-dichlorobenzamide trifluoroacetic acid salt]
0.018	CC(=O)N[C@@H]1Cc2ncc(NC(=O)c3c(Cl)cccc3Cl)cc2N(S(=O)(=O)c2cccc(C)c2)C1 [Compound 41, (R)-N-(7-acetamido-5-(m-tolylsulfonyl)-5,6,7,8-tetrahydro-1,5-naphthyridin-3-yl)-2,6-dichlorobenzamide]
0.025	COC(=O)N[C@@H]1Cc2ncc(NC(=O)c3c(Cl)cccc3Cl)cc2N(S(=O)(=O)c2cccc(C)c2)C1 [Compound 42, (R)-methyl (7-(2,6-dichlorobenzamido)-1-(m-tolylsulfonyl)-1,2,3,4-tetrahydro-1,5-naphthyridin-3-yl)carbamate]
0.024	CC(=O)NC[C@H]1CN(S(=O)(=O)c2cccc(C3CC3)c2)c2cc(NC(=O)c3c(Cl)cccc3Cl)cnc2O1 [Compound 43]
0.006	CC(C)(C)OC(=O)N[C@@H]1Cc2ncc(NC(=O)c3c(Cl)cccc3Cl)cc2N(S(=O)(=O)c2cccc(Cl)c2)C1 [Compound 45]
0.072	CC(=O)NC1Cc2ncc(NC(=O)c3c(Cl)cccc3Cl)cc2N(S(=O)(=O)c2cccc(Cl)c2)C1 (stereo not drawn) [Compound 46]
0.036	CC(C)OC(=O)N[C@H]1Cc2ncc(NC(=O)c3c(Cl)cccc3Cl)cc2N(S(=O)(=O)c2cccc(C(F)(F)F)c2)C1 [Compound 47]
0.01	CN(C)C(=O)NC1Cc2ncc(NC(=O)c3c(Cl)cccc3Cl)cc2N(S(=O)(=O)c2cccc(C(F)(F)F)c2)C1 (stereo not drawn) [Compound 48]
0.012	Cc1nn(C(F)F)cc1S(=O)(=O)N1C[C@@H](NC(=O)C(F)(F)F)Cc2ncc(NC(=O)c3c(F)cccc3Cl)cc21 [Compound 49]
0.031	Cc1nn(C(F)F)cc1S(=O)(=O)N1C[C@H](NC(=O)C(F)(F)F)Cc2ncc(NC(=O)c3c(F)cccc3Cl)cc21 [Compound 50]
0.852	C[C@H](N)C(=O)N[C@H]1Cc2ncc(NC(=O)c3c(Cl)cccc3Cl)cc2N(S(=O)(=O)c2cccc(C(F)(F)F)c2)C1 [Compound 51]
0.074	C[C@H](O)C(=O)N[C@H]1Cc2ncc(NC(=O)c3c(Cl)cccc3Cl)cc2N(S(=O)(=O)c2cccc(C(F)(F)F)c2)C1 [Compound 52]
0.025	N[C@H]1Cc2ncc(NC(=O)c3c(Cl)cccc3Cl)cc2N(S(=O)(=O)c2cccc(C(F)(F)F)c2)C1 [Compound 53]
0.017	CC(C)(C)OC(=O)N[C@H]1Cc2ncc(NC(=O)c3c(Cl)cccc3Cl)cc2N(S(=O)(=O)c2cccc(C(F)(F)F)c2)C1 [Compound 54]

EC50 [µM]	SMILES
0.032	C[C@H](N)C(=O)N[C@@H]1Cc2ncc(NC(=O)c3c(Cl)cccc3Cl)cc2N(S(=O)(=O)c2cccc(C(F)(F)F)c2)C1 [Compound 55]
0.132	C[C@H](O)C(=O)N[C@@H]1Cc2ncc(NC(=O)c3c(Cl)cccc3Cl)cc2N(S(=O)(=O)c2cccc(C(F)(F)F)c2)C1 [Compound 56]
0.024	N[C@H]1Cc2ncc(NC(=O)c3c(Cl)cccc3Cl)cc2N(S(=O)(=O)c2cccc(C(F)(F)F)c2)C1 [Compound 57]
0.013	CC(C)OC(=O)N[C@@H]1Cc2ncc(NC(=O)c3c(Cl)cccc3Cl)cc2N(S(=O)(=O)c2cccc(C(F)(F)F)c2)C1 [Compound 58]
0.024	CC(C)(C)OC(=O)N[C@@H]1Cc2ncc(NC(=O)c3c(Cl)cccc3Cl)cc2N(S(=O)(=O)c2cccc(C(F)(F)F)c2)C1 [Compound 59]
0.023	N[C@H](CO)C(=O)NC1Cc2ncc(NC(=O)c3c(Cl)cccc3Cl)cc2N(S(=O)(=O)c2cccc(C(F)(F)F)c2)C1 (stereo partly drawn) [Compound 60]
0.026	CCOC(=O)N[C@H]1Cc2ncc(NC(=O)c3c(Cl)cccc3Cl)cc2N(S(=O)(=O)c2cccc(C(F)(F)F)c2)C1 [Compound 63]
0.018	CCOC(=O)N[C@@H]1Cc2ncc(NC(=O)c3c(Cl)cccc3Cl)cc2N(S(=O)(=O)c2cccc(C(F)(F)F)c2)C1 [Compound 64]
0.009	Cc1nn(C(F)F)cc1S(=O)(=O)N1C[C@@H](NC(=O)OC(C)C)Cc2ncc(NC(=O)c3c(F)cccc3Cl)cc21 [Compound 65]
0.204	Cc1nn(C(F)F)cc1S(=O)(=O)N1C[C@H](NC(=O)OC(C)C)Cc2ncc(NC(=O)c3c(F)cccc3Cl)cc21 [Compound 66]
0.023	Cc1cccc(S(=O)(=O)N2C[C@H](NC(=O)[C@H](C)O)Cc3ncc(NC(=O)c4c(Cl)cccc4Cl)cc32)c1 [Compound 67]
0.025	CC(=O)NC1Cc2ncc(NC(=O)c3c(Cl)cccc3Cl)cc2N(S(=O)(=O)c2cccc(C3CC3)c2)C1 (stereo not drawn) [Compound 68]
0.013	CC(C)(C)OC(=O)NC1Cc2ncc(NC(=O)c3c(Cl)cccc3Cl)cc2N(S(=O)(=O)c2cccc(C3CC3)c2)C1 (stereo not drawn) [Compound 69]
0.038	NC1Cc2ncc(NC(=O)c3c(Cl)cccc3Cl)cc2N(S(=O)(=O)c2cccc(C3CC3)c2)C1 (stereo not drawn) [Compound 70]
0.013	Cc1cccc(S(=O)(=O)N2CC(N)COc3ncc(NC(=O)C(F)(F)F)cc32)c1 (stereo not drawn) [Compound 71, N-[7-amino-5-(toluene-3-sulfonyl)-5,6,7,8-tetrahydro-9-oxa-1,5-diaza-benzocyclohepten-3-yl]-2,2,2-trifluoro-acetamide]
0.174	Cc1cccc(S(=O)(=O)N2CC(N)COc3ncc(NC(=O)c4c(Cl)cccc4Cl)cc32)c1 (stereo not drawn) [Compound 74, N-[7-amino-5-(toluene-3-sulfonyl)-5,6,7,8-tetrahydro-9-oxa-1,5-diaza-benzocyclohepten-3-yl]-2,6-dichloro-benzamide]
0.291	CC(=O)NC1COc2ncc(NC(=O)c3c(Cl)cccc3Cl)cc2N(S(=O)(=O)c2cccc(C)c2)C1 (stereo not drawn) [Compound 75, N-[7-acetylamino-5-(toluene-3-sulfonyl)-5,6,7,8-tetrahydro-9-oxa-1,5-diaza-benzocyclohepten-3-yl]-2,6-dichloro-benzamide]
0.098	Cc1cccc(S(=O)(=O)N2CC(N(C)C)COc3ncc(NC(=O)c4c(Cl)cccc4Cl)cc32)c1 (stereo not drawn) [Compound 76, 2,6-dichloro-N-[7-dimethylamino-5-(toluene-3-sulfonyl)-5,6,7,8-tetrahydro-9-oxa-1,5-diaza-benzocyclohepten-3-yl]-benzamide]
0.553	CCNC1Cc2ncc(NC(=O)c3c(Cl)cccc3Cl)cc2N(S(=O)(=O)c2cccc(C)c2)C1 (stereo not drawn) [Compound 77]
0.025	CCN(CC)[C@H]1Cc2ncc(NC(=O)c3c(Cl)cccc3Cl)cc2N(S(=O)(=O)c2cccc(C)c2)C1 [Compound 78]
0.024	CCN(CC)[C@@H]1Cc2ncc(NC(=O)c3c(Cl)cccc3Cl)cc2N(S(=O)(=O)c2cccc(C)c2)C1 [Compound 79]
0.026	O=C(Nc1ccc2c(c1)N(S(=O)(=O)c1cccc(Cl)c1)C[C@H](CN1CCCC1=O)O2)c1c(Cl)cccc1Cl [Compound 80, 2,6-dichloro-N-[(S)-4-(3-chloro-benzenesulfonyl)-2-(2-oxopyrrolidin-1-ylmethyl)-3,4-dihydro-2H-benzo[1,4]oxazin-6-yl]-benzamide]

Source: patent publication US9657033B2, “Tetrahydronaphthyridine and related bicyclic compounds for inhibition of RORγ activity and the treatment of disease” (Merck Sharp & Dohme Corp., priority 2012, dated 2017)
